Test results reported in patent US11708344B2, “Flavone derivatives for the treatment and prophylaxis of hepatitis B virus disease” (Hoffmann-La Roche Inc., priority 2018, dated 2023).
pIC50: −log10 of the molar value.

What was measured:
[1] = test system: HBeAg (surrogate marker for cccDNA) in HepDES19 cells; test: Engineered HepDES19 primary screen assay (HBeAg ELISA); format: cell-based, HBV; settings: Hepatitis B virus, HepDES19, 120 h, read-out: IC50 (HBeAg level, HepDES19 primary screen assay), HepDES19 cells, 5 days compound incubation, HBeAg ELISA
Procedure, shortened: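 IC50 values come from 4-parameter logistic fits of HBeAg ELISA signal, the cccDNA surrogate, with CCK-8 run in parallel for viability. Compounds at half-log dilutions with 1% DMSO were applied for 5 days at 37 °C to HepDES19 cells previously cultured 8 days without Tet.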

[2] = Human microsome stability assay; format: in vitro ADME; settings: human liver microsomes, 1 μM test compound, 0.5 mg/mL microsomal protein, 37° C., pH 7.4, 0-30 minutes
Procedure: The human microsomal stability assay is used for early assessment of metabolic stability of a test compound in human liver microsomes.
Human liver microsomes (Cat. NO.: 452117, Corning, USA; Cat. NO.: H2610, Xenotech, USA) were preincubated with test compound for 10 minutes at 37° C. in 100 mM potassium phosphate buffer, pH 7.4. The reactions were initiated by adding NADPH regenerating system. The final incubation mixtures contained 1 μM test compound, 0.5 mg/mL liver microsomal protein, 1 mM MgCl2, 1 mM NADP, 1 unit/mL isocitric dehydrogenase and 6 mM isocitric acid in 100 mM potassium phosphate buffer, pH 7.4. After incubation times of 0, 3, 6, 9, 15 and 30 minutes at 37° C., 300 μL of cold ACN (including internal standard) was added to 100 μL incubation mixture to terminate the reaction. Following precipitation and centrifugation, the amount of compound remaining in the samples was determined by LC-MS/MS. Controls of no NADPH regenerating system at zero and 30 minutes were also prepared and analyzed.

With `O=C(O)COCCCOc1cc(C(F)(F)F)ccc1-c1cc(=O)c2c(O)ccc(Cl)c2o1` [Example C100, 2-[3-[2-(8-chloro-5-hydroxy-4-oxo-chromen-2-yl)-5-(trifluoromethyl)phenoxy]propoxy]acetic acid] the pIC50 [1] was 6.16 and the “Clearance of Human microsome” value [2] was 6.15 mL/min/kg.
In the case of `Cc1cc(-c2cc(=O)c3cccc(Cl)c3o2)c(OCC(=O)N2CC[C@H](O)C2)cc1Br` [Example A088, 2-[4-bromo-2-[2-[(3S)-3-hydroxypyrrolidin-1-yl]-2-oxo-ethoxy]-5-methyl-phenyl]-8-chloro-chromen-4-one], the pIC50 [1] was 5.95 and the “Clearance of Human microsome” value [2] was 7.09 mL/min/kg.
With `CC(C)(COc1cc(Br)ccc1-c1cc(=O)c2cccc(Cl)c2o1)CO[C@H]1C[C@@H](C(=O)O)C1` [Example C110-A, cis-3-[3-[5-bromo-2-(8-chloro-4-oxo-chromen-2-yl)phenoxy]-2,2-dimethyl-propoxy]cyclobutanecarboxylic acid] the pIC50 [1] was 6.36 and the “Clearance of Human microsome” value [2] was 6.15 mL/min/kg.
With `O=C(O)[C@@H]1C[C@@H](Oc2cc(C(F)(F)F)ccc2-c2cc(=O)c3cccc(Cl)c3o2)CN1S(=O)(=O)C1CC1` [Example B077] the pIC50 [1] was 6.18 and the “Clearance of Human microsome” value [2] was 6.15 mL/min/kg.
For `CS(=O)(=O)NC(=O)[C@H]1C[C@H](Oc2cc(C(F)(F)F)ccc2-c2cc(=O)c3cccc(Cl)c3o2)C1` [Example B048-B, Trans-3-[2-(8-chloro-4-oxo-chromen-2-yl)-5-(trifluoromethyl)phenoxy]-N-methylsulfonyl-cyclobutanecarboxamide], the pIC50 [1] was 5.51 and the “Clearance of Human microsome” value [2] was 6.15 mL/min/kg.
For `O=C(O)COc1cc(C(F)(F)F)ccc1-c1cc(=O)c2cccc(Cl)c2o1` [Example A051, 2-[2-(8-chloro-4-oxo-chromen-2-yl)-5-(trifluoromethyl)phenoxy]acetic acid], the pIC50 [1] was 5.62 and the “Clearance of Human microsome” value [2] was 6.15 mL/min/kg.
In the case of `O=c1cc(-c2cc(OC(F)F)c(OC(F)F)cc2OCCO[C@H]2C[C@@H](C(=O)O)C2)oc2c(Cl)cccc12` [Example C087, cis-3-[2-[2-(8-chloro-4-oxo-chromen-2-yl)-4,5-bis(difluoromethoxy)phenoxy]ethoxy]cyclobutanecarboxylic acid], the pIC50 [1] was 5.20 and the “Clearance of Human microsome” value [2] was 6.15 mL/min/kg.
With `O=C(O)[C@@H]1C[C@H](Oc2cc(C(F)(F)F)ccc2-c2cc(=O)c3cccc(Cl)c3o2)CN1S(=O)(=O)c1ccccc1` [Example B080, (2S,4S)-1-(benzenesulfonyl)-4-[2-(8-chloro-4-oxo-chromen-2-yl)-5-(trifluoromethyl)phenoxy]pyrrolidine-2-carboxylic acid] the pIC50 [1] was 5.92 and the “Clearance of Human microsome” value [2] was 6.15 mL/min/kg.
With `COc1cc(OCCCOCC(=O)O)c(-c2cc(=O)c3cccc(Cl)c3o2)cc1OC` [Example C012, 2-[3-[2-(8-chloro-4-oxo-chromen-2-yl)-4,5-dimethoxy-phenoxy]propoxy]acetic acid] the pIC50 [1] was 5.28 and the “Clearance of Human microsome” value [2] was 6.15 mL/min/kg.
For `COc1cc(OCC(=O)NS(=O)(=O)C2CC2)c(-c2cc(=O)c3cccc(Cl)c3o2)cc1OC` [Example A091, 2-[2-(8-chloro-4-oxo-chromen-2-yl)-4,5-dimethoxy-phenoxy]-N-cyclopropylsulfonyl-acetamide], the pIC50 [1] was 6.05 and the “Clearance of Human microsome” value [2] was 6.15 mL/min/kg.
With `Cc1ccc(-c2cc(=O)c3cccc(Cl)c3o2)c(OCC(=O)N2CCC[C@@H]2C(=O)O)c1` [Example A077, (2R)-1-[2-[2-(8-chloro-4-oxo-chromen-2-yl)-5-methyl-phenoxy]acetyl]pyrrolidine-2-carboxylic acid] the pIC50 [1] was 5.05 and the “Clearance of Human microsome” value [2] was 8.57 mL/min/kg.
In the case of `COc1cc(OCCCC(=O)O)c(-c2cc(=O)c3cccc(Cl)c3o2)cc1C` [Example A060, 4-[2-(8-chloro-4-oxo-chromen-2-yl)-5-methoxy-4-methyl-phenoxy]butanoic acid], the pIC50 [1] was 5.27 and the “Clearance of Human microsome” value [2] was 6.15 mL/min/kg.
For `COc1cc(OC2CC(C(=O)O)C2)c(-c2cc(=O)c3c(O)ccc(Cl)c3o2)cc1OC` (centres unmarked) [Example B042, 3-[2-(8-chloro-5-hydroxy-4-oxo-chromen-2-yl)-4,5-dimethoxy-phenoxy]cyclobutanecarboxylic acid], the pIC50 [1] was 6.06 and the “Clearance of Human microsome” value [2] was 6.15 mL/min/kg.
For `O=C(O)CCOc1cc(C(F)(F)F)ccc1-c1cc(=O)c2cc(F)cc(Cl)c2o1` [Example A003, 3-[2-(8-chloro-6-fluoro-4-oxo-chromen-2-yl)-5-(trifluoromethyl)phenoxy]propanoic acid], the pIC50 [1] was 6.44 and the “Clearance of Human microsome” value [2] was 6.15 mL/min/kg.
For `O=C(O)COCCCOc1cc(Cl)ccc1-c1cc(=O)c2cccc(Cl)c2o1` [Example C009, 2-[3-[5-chloro-2-(8-chloro-4-oxo-chromen-2-yl)phenoxy]propoxy]acetic acid], the pIC50 [1] was 5.58 and the “Clearance of Human microsome” value [2] was 6.15 mL/min/kg.
In the case of `CC(C)(Oc1cc(Br)ccc1-c1cc(=O)c2cccc(Cl)c2o1)C(=O)O` [Example A070, 2-[5-bromo-2-(8-chloro-4-oxo-chromen-2-yl)phenoxy]-2-methyl-propanoic acid], the pIC50 [1] was 6.20 and the “Clearance of Human microsome” value [2] was 6.15 mL/min/kg.
For `Cc1cc(-c2cc(=O)c3cccc(Cl)c3o2)c(O[C@H]2C[C@@H](C(=O)NS(C)(=O)=O)C2)cc1Br` [Example B049-A, Cis-3-[5-bromo-2-(8-chloro-4-oxo-chromen-2-yl)-4-methyl-phenoxy]-N-methylsulfonyl-cyclobutanecarboxamide], the pIC50 [1] was 4.91 and the “Clearance of Human microsome” value [2] was 7.5 mL/min/kg.
With `O=c1cc(-c2cccc(F)c2OCCO[C@H]2C[C@@H](C(=O)O)C2)oc2c(Cl)cccc12` [Example C037-A, Cis-3-[2-[2-(8-chloro-4-oxo-chromen-2-yl)-6-fluoro-phenoxy]ethoxy]cyclobutanecarboxylic acid] the pIC50 [1] was 7.01 and the “Clearance of Human microsome” value [2] was 6.15 mL/min/kg.
For `COc1cc(O[C@H]2C[C@@H](C(=O)NS(C)(=O)=O)C2)c(-c2cc(=O)c3cccc(Cl)c3o2)cc1C` [Example B050-A, Cis-3-[2-(8-chloro-4-oxo-chromen-2-yl)-5-methoxy-4-methyl-phenoxy]-N-methylsulfonyl-cyclobutanecarboxamide], the pIC50 [1] was 5.15 and the “Clearance of Human microsome” value [2] was 6.15 mL/min/kg.
In the case of `O=c1cc(-c2cc3c(cc2O[C@H]2C[C@H](C(=O)O)C2)CCO3)oc2c(Cl)cccc12` [Example B023, Trans-3-[[6-(8-chloro-4-oxo-chromen-2-yl)-2,3-dihydrobenzofuran-5-yl]oxy]cyclobutanecarboxylic acid], the pIC50 [1] was 5.47 and the “Clearance of Human microsome” value [2] was 6.15 mL/min/kg.
With `O=c1cc(-c2cc(Br)c(F)cc2OCCO[C@H]2C[C@@H](C(=O)O)C2)oc2c(Cl)cccc12` [Example C032-A, Cis-3-[2-[4-bromo-2-(8-chloro-4-oxo-chromen-2-yl)-5-fluoro-phenoxy]ethoxy]cyclobutanecarboxylic acid] the pIC50 [1] was 4.72 and the “Clearance of Human microsome” value [2] was 9.6 mL/min/kg.
With `Cc1cc(OCCC(=O)O)c(-c2cc(=O)c3cccc(Cl)c3o2)cc1OC(F)(F)F` [Example A019, 3-[2-(8-chloro-4-oxo-chromen-2-yl)-5-methyl-4-(trifluoromethoxy)phenoxy]propanoic acid] the pIC50 [1] was 5.53 and the “Clearance of Human microsome” value [2] was 6.15 mL/min/kg.
In the case of `CCOc1ccc(-c2cc(=O)c3c(O)ccc(Cl)c3o2)c(O[C@H]2C[C@H](C(=O)O)C2)c1` [Example B039-B, Trans-3-[2-(8-chloro-5-hydroxy-4-oxo-chromen-2-yl)-5-ethoxy-phenoxy]cyclobutanecarboxylic acid], the pIC50 [1] was 4.94 and the “Clearance of Human microsome” value [2] was 6.15 mL/min/kg.
In the case of `Cc1cc(OCCO[C@H]2C[C@@H](C(=O)O)C2)c(-c2cc(=O)c3cccc(Cl)c3o2)cc1C(F)F` [Example C075, Cis-3-[2-[2-(8-chloro-4-oxo-chromen-2-yl)-4-(difluoromethyl)-5-methyl-phenoxy]ethoxy]cyclobutanecarboxylic acid], the pIC50 [1] was 4.96 and the “Clearance of Human microsome” value [2] was 6.15 mL/min/kg.
In the case of `Cc1cc(-c2cc(=O)c3cccc(Cl)c3o2)c(OCC(=O)N2CCC[C@H]2C(=O)O)cc1Br` [Example A080, (2S)-1-[2-[5-bromo-2-(8-chloro-4-oxo-chromen-2-yl)-4-methyl-phenoxy]acetyl]pyrrolidine-2-carboxylic acid], the pIC50 [1] was 4.76 and the “Clearance of Human microsome” value [2] was 6.15 mL/min/kg.
With `Cc1ccc(-c2cc(=O)c3cccc(Cl)c3o2)c(OCCCC(=O)O)c1` [Example A059, 4-[2-(8-chloro-4-oxo-chromen-2-yl)-5-methyl-phenoxy]butanoic acid] the pIC50 [1] was 6.21 and the “Clearance of Human microsome” value [2] was 8.34 mL/min/kg.
In the case of `Cc1ccc(-c2cc(=O)c3cccc(Cl)c3o2)c(OCC(C)(C)C(=O)O)c1` [Example A063, 3-[2-(8-chloro-4-oxo-chromen-2-yl)-5-methyl-phenoxy]-2,2-dimethyl-propanoic acid], the pIC50 [1] was 5.87 and the “Clearance of Human microsome” value [2] was 6.15 mL/min/kg.
In the case of `O=C(O)COCC(O)COc1cc(C(F)(F)F)ccc1-c1cc(=O)c2cccc(Cl)c2o1` (centres unmarked) [Example C115, 2-[3-[2-(8-chloro-4-oxo-chromen-2-yl)-5-(trifluoromethyl)phenoxy]-2-hydroxy-propoxy]acetic acid], the pIC50 [1] was 4.72 and the “Clearance of Human microsome” value [2] was 6.15 mL/min/kg.
